US20250368687A1, “SHORT SYNTHETIC PEPTIDES AND USES THEREOF IN THE TREATMENT OF ENTEROVIRUS INFECTION” (CITY UNIVERSITY OF HONG KONG, priority 2024, published 2025)

Experiments:
EV-A71 = assay: Viral RNA quantification by RT-qPCR; format: cell-based; details: for effect on viral RNA level: 8 μM; for decrease of extracellular viral RNA level: 25 μM, EV-A71 MOI 1 for 12 hours; for decrease of extracellular viral RNA level / decrease of viral RNA / viral RNA level (in words): RD cells; for decrease of viral RNA: 50 μM; for decrease of viral RNA / viral RNA level (in words): intracellular viral RNA; for viral RNA level (in words): indicated concentrations
Experimental: FIGS. 7A-7D Ser78 phosphorylation-deficient Hsp27 inhibits EV-A71 replication and propagation (FIG. 7A) HEK 293T cells were transfected with 500 ng Hsp27 (WT, 3A, S15A, S78A, S82A) plasmids for 48 hours, and then infected with EV-A71 at an MOI of 10 for 9h. Intracellular viral RNA were extracted and quantified by qPCR. (FIG. 7B) HEK 293T cells were transfected with 500 ng Hsp27 (WT, 3D, S15D, S78D, S82D) plasmids for 48 hours, and then infected with EV-A71 at an MOI of 10 for 9h. Intracellular viral RNA were extracted and quantified by qPCR. (FIG. 7C) HEK 293T cells were transfected with 500 ng Hsp27 (WT, S78A, S78D) plasmids for 48 hours, and treated with 8 μM SB203580 2 hours before infection with EV-A71. (FIG. 7D) HEK 293T cells were transfected with 500 ng Hsp27 (WT, 3A, S15A, S78A, S82A) plasmids for 48 hours, and then infected with EV-A71 at an MOI of 10 for 12h. Viral titration was calculated by TCID50. Statistical analyses were carried out using Student's t-test. *: p<0.05, **: p<0.01, ***: p<0.001. Data are expressed as mean ±SD.
(§1) FIGS. 10A-10K. Peptide S78 inhibited EV-A71 replication and propagation. (FIG. 10A) RD cells were pre-treated with peptides S78 or for 2 hours and infected with EV-A71 at the MOI of 10 for 6 hours. Cell lysates were collected for western blot assay. Hsp27 phosphorylation on Ser 15, 78, 82 were detected by specific antibodies. β-Actin were detected as internal control. (FIG. 10B) Densitometric analysis of FIG. 9A. (FIG. 10C) HEK 293T cells were pre-treated with peptides S78 or S78A at the concentration of 25 μM for 2 hours and then co-transfected with Hsp27-WT plasmid (800 ng), pIRES reporter plasmid (200 ng) and 2A^pro-expressing plasmid or 2AC110A-expressing plasmid (200 ng) for 24 h, then the luciferase activity was measured. (FIG. 10D-10E) RD cells were treated with peptides S78 or S78A and then infected with EV-A71. EV-A71 VP1 were detected. (FIG. 10F) RD cells were treated with peptides and then infected with EV-A71 at the MOI of 1 for 12 hours. The EV-A71-induced CPE was captured. (FIG. 10G-10H) Intracellular viral RNA was extracted and quantified by qPCR. (FIG. 10I) Densitometric analysis FIG. 9D-E. (FIG. 10J) RD cells were treated with peptides S78 or and then infected with EV-A71 at the MOI of 1 for 12 hours. Extracellular viral RNA was extracted and quantified by qPCR. (FIG. 10K) Viral titration was calculated by TCID50. The Statistical analyses were carried out using Student's t-test. *: p<0.05, **: p<0.01, ***: p<0.001. Data are expressed as mean ±SD.
FIGS. 11A-11G Inhibition of EV-A71 Protein Translation and Viral Reproduction by peptide S82A. (FIG. 11A) HEK 293T cells were pre-treated with peptides NC, S78, S78A, S82A, or S78-3A at the concentration of 25 μM for 2 hours and then co-transfected with Hsp27-WT plasmid (800 ng), pIRES reporter plasmid (200 ng) and 2A^pro-expressing plasmid for 24 h, then the luciferase activity was measured. (FIG. 11B) RD cells were pre-treated with peptides NC at indicated concentrations for 2 hours and infected with EV-A71 at the MOI of 1 for 9 hours. Intracellular viral RNA was extracted and quantified by qPCR. (FIG. 11C-11E) RD cells were treated with peptides NC, S82A, or S78-3A at indicated concentrations for 2 hours and then infected with EV-A71 at the MOI of 1 for 9 hours. Cell lysates were collected for western blot assay. EV-A71 VP1 were detected. β-Actin was detected as an internal control. (FIG. 11F) Densitometric analysis of the EV-A71 VP1 level in FIG. S7C-E was quantified and normalized with β-Actin using ImageJ. (FIG. 11G) RD cells were treated with peptides S78, S78A, S82A, or S78-3A at the concentration of 25 μM for 2 hours and then infected with EV-A71 at the MOI of 0.1 for 24 hours. Viral titration was calculated. The Statistical analyses were carried out using Student's t-test. *: p<0.05, **: p<0.01, ***: p<0.001. Data are expressed as mean ±SD. […]

EV-A71 IRES activity = assay: Dual-luciferase IRES reporter assay in HEK 293T cells pre-treated with peptides; format: cell-based; details: 25 μM for 2 hours; for decrease of 2Apro-induced viral IRES activity: 24 h
Experimental: as §1
FIGS. 11A-11G Inhibition of EV-A71 Protein Translation and Viral Reproduction by peptide S82A. (FIG. 11A) HEK 293T cells were pre-treated with peptides NC, S78, S78A, S82A, or S78-3A at the concentration of 25 μM for 2 hours and then co-transfected with Hsp27-WT plasmid (800 ng), pIRES reporter plasmid (200 ng) and 2A^pro-expressing plasmid for 24 h, then the luciferase activity was measured. (FIG. 11B) RD cells were pre-treated with peptides NC at indicated concentrations for 2 hours and infected with EV-A71 at the MOI of 1 for 9 hours. Intracellular viral RNA was extracted and quantified by qPCR. […] EV-A71 VP1 were detected. β-Actin was detected as an internal control. (FIG. 11F) Densitometric analysis of the EV-A71 VP1 level in FIG. S7C-E was quantified and normalized with β-Actin using ImageJ. […] Viral titration was calculated. […] Data are expressed as mean ±SD.
HEK 293T cells were seeded in 24-wells, and then co-transfected with plasmids to simultaneously express 2A^pro (200 ng), pIRES reporter (200 ng), and the wild-type Hsp27 or its mutants (800 ng). […] The Renilla luciferase (RLuc) and Firefly luciferase (FLuc) activity were determined by using a dual-luciferase reporter assay (Promega) according to the manufacturer's instructions in a Lumat LB9507 bioluminometer.

Compound | decrease of viral RNA level (EV-A71; 8 μM 2 hours before infection, Hsp27 over-expressing HEK 293T cells) [%] | effect on viral RNA level (EV-A71; Hsp27 S78A-expressing HEK 293T cells) | effect on viral RNA level (EV-A71; Hsp27 S78D-expressing HEK 293T cells) | decrease of extracellular viral RNA level (EV-A71) [folds] | decrease of viral RNA (EV-A71) [%] | decrease of 2Apro-induced viral IRES activity (EV-A71 IRES activity) | viral RNA level (in words) (EV-A71) | effect on viral IRES activity (in words) (EV-A71 IRES activity; 24 h (FIG. 11A))
C[S+]([O-])c1ccc(-c2nc(-c3ccncc3)c(-c3ccc(F)cc3)[nH]2)cc1 (stereo not drawn) [SB203580, reference compound] | 50 | no obvious effects | no obvious effects |  |  |  |  | 
Ac-RKKRRQRRRAYSRALARQLSS-NH2 [S78A] |  |  |  | 30 | 46 | about 10% |  | 
Ac-RKKRRQRRRAYSRALSRQLSS-NH2 [S78] |  |  |  | 800 | 82 | 34% | dramatically reduced | 
Ac-RKKRRQRRRYSREANQPKPSPKRESGEE-NH2 [NC, reference compound] |  |  |  |  |  |  | no effect | did not affect
